Several values for one entry are separate records, joined by “and”; a condition that tells them apart may be missing. Identical values can stand only once.
Tested on: T2 soybean events expressing the indicated Amaranthus PPO2 variant transgene
Experiment: Soybean PPO inhibitor tolerance testing, injury score (Table C)
Assay type: in vivo, Soybean cv Jake
Settings: V2 stage, 3 days after treatment, individual plants
Procedure: Soybean cv Jake is transformed as previously described by Siminszky et al., Phytochem Rev. 5:445-458 (2006). After regeneration, transformants are transplanted to soil in small pots, placed in growth chambers (16 hr day/8 hr night; 25° C. day/23° C. night; 65% relative humidity; 130-150 microE m-2 s-1) and subsequently tested for the presence of the T-DNA via Taqman analysis. After a few weeks, healthy, transgenic positive, single copy events are transplanted to larger pots and allowed to grow in the growth chamber. An optimal shoot for cutting is about 3-4 inches tall, with at least two nodes present. Each cutting is taken from the original transformant (mother plant) and dipped into rooting hormone powder (indole-3-butyric acid, IBA). The cutting is then placed in oasis wedges inside a bio-dome. The mother plant is taken to maturity in the greenhouse and harvested for seed. Wild type cuttings are also taken simultaneously to serve as negative controls. The cuttings are kept in the bio-dome for 5-7 days and then transplanted to 3 inch pots and then acclimated in the growth chamber for two more days. Subsequently, the cuttings are transferred to the greenhouse, acclimated for approximately 4 days prior to spray. […] g ai/ha saflufenacil plus 1% MSO and/or 25-200 g ai/ha 1,5-dimethyl-6-thioxo-3-(2,2,7-trifluoro-3-oxo-4-(prop-2-ynyl)-3,4-dihydro-2H-benzo[b][1,4]oxazin-6-yl)-1,3,5-triazinane-2,4-dione (CAS 1258836-72-4) plus 1% MSO. Other PPO inhibiting herbicides are also tested in a similar fashion for confirming cross resistance: flumioxazin, butafenacil, acifluorfen, lactofen, bifenox, sulfentrazone, methyl 2-[2-chloro-5-[3-chloro-5-(trifluoromethyl)-2-pyridyl]-4-fluoro-phenoxy]-2-methoxy-acetate, ethyl 2-[2-chloro-5-[3-chloro-5-(trifluoromethyl)-2-pyridyl]-4-fluoro-phenoxy]-2-methoxy-acetate, prop-2-ynyl 2-[2-chloro-5-[3-chloro-5-(trifluoromethyl)-2-pyridyl]-4-fluoro-phenoxy]-2-methoxy-acetate and photosynthesis inhibitor diuron as negative control. […]
The following gives a definition of the injury scores measured above: […]

[1] = soybean T2, transgene L397E_F420M, 25 g ai/ha + 1% v/v MSO
[2] = soybean T2, transgene L397E_F420M, 50 g ai/ha + 1% v/v MSO
[3] = soybean T2, transgene L397E_F420M, 100 g ai/ha + 1% v/v MSO
[4] = soybean T2, transgene L397E_F420M, 200 g ai/ha + 1% v/v MSO
[5] = soybean T2, transgene L397Q_F420M, 25 g ai/ha + 1% v/v MSO
[6] = soybean T2, transgene L397Q_F420M, 50 g ai/ha + 1% v/v MSO
[7] = soybean T2, transgene L397Q_F420M, 100 g ai/ha + 1% v/v MSO
[8] = soybean T2, transgene L397Q_F420M, 200 g ai/ha + 1% v/v MSO
[9] = soybean T2, transgene R128A_F420I event 1, 25 g ai/ha + 1% v/v MSO
[10] = soybean T2, transgene R128A_F420I event 1, 50 g ai/ha + 1% v/v MSO
[11] = soybean T2, transgene R128A_F420I event 1, 100 g ai/ha + 1% v/v MSO
[12] = soybean T2, transgene R128A_F420I event 1, 200 g ai/ha + 1% v/v MSO
[13] = soybean T2, transgene R128A_F420I event 2, 25 g ai/ha + 1% v/v MSO
[14] = soybean T2, transgene R128A_F420I event 2, 50 g ai/ha + 1% v/v MSO
[15] = soybean T2, transgene R128A_F420I event 2, 100 g ai/ha + 1% v/v MSO
[16] = soybean T2, transgene R128A_F420I event 2, 200 g ai/ha + 1% v/v MSO
[17] = soybean T2, transgene R128A_F420I event 3, 25 g ai/ha + 1% v/v MSO
[18] = soybean T2, transgene R128A_F420I event 3, 50 g ai/ha + 1% v/v MSO
[19] = soybean T2, transgene R128A_F420I event 3, 100 g ai/ha + 1% v/v MSO
[20] = soybean T2, transgene R128A_F420I event 3, 200 g ai/ha + 1% v/v MSO
[21] = soybean T2, transgene R128A_F420V, 25 g ai/ha + 1% v/v MSO
[22] = soybean T2, transgene R128A_F420V, 50 g ai/ha + 1% v/v MSO
[23] = soybean T2, transgene R128A_F420V, 100 g ai/ha + 1% v/v MSO
[24] = soybean, Non transgenic, 25 g ai/ha + 1% v/v MSO
[25] = soybean, Non transgenic, 50 g ai/ha + 1% v/v MSO
[26] = soybean, Non transgenic, 100 g ai/ha + 1% v/v MSO
[27] = soybean, Non transgenic, 200 g ai/ha + 1% v/v MSO

Compound | injury on a 0-9 point scale [1] | injury on a 0-9 point scale [2] | injury on a 0-9 point scale [3] | injury on a 0-9 point scale [4] | injury on a 0-9 point scale [5] | injury on a 0-9 point scale [6] | injury on a 0-9 point scale [7] | injury on a 0-9 point scale [8] | injury on a 0-9 point scale [9] | injury on a 0-9 point scale [10] | injury on a 0-9 point scale [11] | injury on a 0-9 point scale [12] | injury on a 0-9 point scale [13] | injury on a 0-9 point scale [14] | injury on a 0-9 point scale [15] | injury on a 0-9 point scale [16] | injury on a 0-9 point scale [17] | injury on a 0-9 point scale [18] | injury on a 0-9 point scale [19] | injury on a 0-9 point scale [20] | further results
CCOC(=O)C(OC)Oc1cc(-c2ncc(C(F)(F)F)cc2Cl)c(F)cc1Cl (stereo not shown) [ethyl 2-[2-chloro-5-[3-chloro-5-(trifluoromethyl)-2-pyridyl]-4-fluoro-phenoxy]-2-methoxy-acetate] | 0 (2×) and 9 | 0 (2×) and 2 | 3 (2×) and 9 | 4 and 3 and 5 | 1 and 9 | 9 and 3 and 2 | 2 | 2 and 9 | 0 (2×) and 1 | 0 (2×) and 1 | 4 | 4 (2×) and 5 | 2 and 5 and 1 | 1 and 2 | 5 and 9 | 7 and 4 (2×) | 1 | 1 | 3 and 2 | 3 (2×) and 4 | injury on a 0-9 point scale [21]: 0; injury on a 0-9 point scale [22]: 5; injury on a 0-9 point scale [23]: 4; injury on a 0-9 point scale (soybean T2, transgene R128A_F420V, 200 g ai/ha + 1% v/v MSO): 4 and 5; injury on a 0-9 point scale [24]: 9; injury on a 0-9 point scale [25]: 9; injury on a 0-9 point scale [26]: 9; injury on a 0-9 point scale [27]: 9
C#CCOC(=O)C(OC)Oc1cc(-c2ncc(C(F)(F)F)cc2Cl)c(F)cc1Cl (stereo not shown) [prop-2-ynyl 2-[2-chloro-5-[3-chloro-5-(trifluoromethyl)-2-pyridyl]-4-fluoro-phenoxy]-2-methoxy-acetate] | 1 and 0 and 9 | 0 (2×) and 1 | 1 | 3 (2×) and 4 | 0 | 2 and 1 and 0 | 1 and 2 (2×) | 1 (2×) and 2 | 0 | 2 and 3 and 4 | 5 | 5 (2×) and 4 | 0 | 2 (2×) and 3 | 4 (2×) and 5 | 5 | 0 | 2 | 1 | 3 and 4 | injury on a 0-9 point scale [21]: 2; injury on a 0-9 point scale [22]: 4 (2×) and 5; injury on a 0-9 point scale [23]: 4; injury on a 0-9 point scale [24]: 9; injury on a 0-9 point scale [25]: 9; injury on a 0-9 point scale [26]: 9; injury on a 0-9 point scale [27]: 9

Reference: US11149030B2, “Plants having increased tolerance to herbicides” (BASF AGRO B.V., priority 2016, dated 2021)
